The source of these data is patent publication US10370401B2, “Substituted nucleosides, nucleotides and analogs thereof” (Alios BioPharma, Inc., priority 2013, dated 2019).

In general, EC50 refers to the midpoint of the concentration-response curve. Broadly, the CC50 is the concentration giving 50% cytotoxicity. Read a high CC50 as lower toxicity to the cells.

Holding throughout (format): cell-based
The test system of data set [1] is human rhinovirus 16 (HRV-16), coxasackie B3 (CVB3), enterovirus-68 (EV-68) and enterovirus-71 (EV-71). The data set is described as follows: Enterovirus assay (four viruses, CellTiter Glo). For orientation: In ATP-based viability assays light output follows the ATP content of the culture.
Data set [2] relates to HRV-89. The data set is described as follows: Human rhinovirus strain panel assay, HRV-89. As to conditions: Rhinovirus A, HRV89.
Data set [3] can be described thus: Cytotoxicity in HeLa OHIO host cell line. As to conditions: human, HeLa-OHIO cells, n>5.
Data set [4] concerns Human rhinovirus 1B. The data set can be described thus: Picornavirus assay (CPE, CellTiter-Glo, HeLa-OHIO cells). As to conditions: Rhinovirus A, 96 h.
In data set [5] the test system is subgenomic HCV replicon. The data set is described as follows: HCV replicon assay (Huh-7, luciferase reporter). The settings on record: Hepatitis C virus; Huh-7 HCV replicon cells, luciferase, 72 hours; read-out: EC50. A general note: A replicon is a self-replicating genome or part of one, used to study replication in cells.

Like-named read-outs stand apart in the source and are kept apart here. A value given as a limit tells only on which side of the number the result lay.

Consider `CC(C)OC(=O)OCOP(=O)(OCOC(=O)OC(C)C)OC[C@@]1(CF)O[C@@H](n2ccc(=O)[nH]c2=O)[C@](C)(O)[C@@H]1O` [Compound 44], for which the EC50 in data set [1] (HRV-16, CVB3, EV-68 (HeLa-OHIO cells) and EV-71 (RD cells), read-out: EC50 ranging (across four viruses)) was 380 to 2520 nM; in data set [1] (mean over HRV-16, CVB3, EV-68 and EV-71, read-out: EC50 mean (across four viruses)), 1390 ± 1140 nM; in data set [2] (HRV-89, HeLa-OHIO cells, read-out: EC50), 1000 to 2000 nM; in data set [4] (Human rhinovirus 1B, HeLa-OHIO cells, 4 d at 33° C., read-out: EC50) it was less than 1000 nM; in data set [5], less than 1000 nM. In data set [3], the CC50 was more than 100000 nM.

As for `CC(C)OC(=O)OCOP(=O)(OCOC(=O)OC(C)C)OC[C@@]1(CF)O[C@@H](n2ccc(=O)[nH]c2=O)[C@](C)(O)[C@@H]1OC(=O)C(N)C(C)C` (stereo partly drawn) [Compound 160], the EC50 in data set [2] was 1000 to 2000 nM; in data set [4], less than 1000 nM. Besides, the half-maximal cytotoxic concentration (CC50) in data set [3] is more than 100000 nM.
